Experimental data published in patent US20060234987A1, “Neuroprotective benzo 1 3 oxathiol 2 ones” (priority 2003, published 2006).
pIC50: −log10 of the molar value. Where two headings read alike, the source gives them in different places.

How the values were obtained:
SCG neurons = assay: Protection of SCG neurons from anti-NGF killing; assay type: cell-based, Sprague Dawley rats; conditions: Rattus norvegicus, Neuron; anti-NGF antibody, 48 hours, Alamar Blue viability; read-out: IC50, rescue from anti-NGF killing of cultured SCG neurons
Method: Neurotrophins are critical to the growth, development, and survival of small fiber neurons of the PNS. SCG neurons are neurons of the PNS that undergo apoptosis upon NGF withdrawal. In a typical experiment SCG neurons are cultured in the presence of NGF, which induces survival and neurite out-growth. After 5 days the NGF is removed by either the addition of anti-NGF polyclonal antibody (Sigma) or by repeated washings (4 times) with NGF free media, resulting in the apoptosis of up to 90% of the neurons after 48 hours, as measured by MTS staining. The addition of selected compounds of Formula I to the final cellular media provides upwards of 100% protection, at drug concentrations ranging from 10 to 50 μM (see Example 62).
Protection of SCG neurons from anti-NGF killing. SCG neurons were isolated from day 1 neonatal Sprague Dawley rats, plated at a cell density of 5,000 cells/well, and incubated in Biowhittaker Ultraculture containing 1% Penstrep, 1% L-glutamine, 0.7% ARAC, 3% rat serum, and NGF (50 ng/mL, Calomone Labs), at 37° C., under a 5% CO2 atmosphere. After 4 days the cells were treated with anti-NGF antibody (Sigma). At this time compound was added and the cells were maintained serum and NGF free for 48 hours, at which time viability of the neurons was assessed using Alamar Blue (Medicorp) staining. Table 3 summarizes selected IC50 values from compounds tested using this protocol.

SHP1 = target: T1, SHP1 (Homo sapiens, UniProt P29350); assay: Phosphatase profile: SHP1 inhibition (DIFMUP fluorescence); assay type: biochemical
T1 construct: made in house; host or cells: adenovirus vector
Method: A) SHP1 and SHP2: SHP1 and SHP2 adenovirus vectors were prepared. SHP1 and SHP2 were independently over expressed, isolated and purified using FPLC. Enzyme was diluted to 1000-1400 FU/min. Enzyme (45 μL) was uniformLy plated in 96 well plates and treated with serial dilutions of compound (2 μL in DMSO). Compound and enzyme are allowed to incubate for 30 minutes at RT before the addition of DIFMUP (100 μM). The solutions are allowed to incubate at RT for 10 minutes prior to reading the fluorescence, to provide IC50 curves using LSW Data Analysis Tool Box (MDL).

PTP-1B = target: T2, PTP-1B (Homo sapiens, UniProt P18031); assay: PTP-1B Assay; assay type: biochemical; conditions: Table 6
T2 construct: purchased BIOMOL Research Laboratories, Inc
T2 sequence (P18031 1-435): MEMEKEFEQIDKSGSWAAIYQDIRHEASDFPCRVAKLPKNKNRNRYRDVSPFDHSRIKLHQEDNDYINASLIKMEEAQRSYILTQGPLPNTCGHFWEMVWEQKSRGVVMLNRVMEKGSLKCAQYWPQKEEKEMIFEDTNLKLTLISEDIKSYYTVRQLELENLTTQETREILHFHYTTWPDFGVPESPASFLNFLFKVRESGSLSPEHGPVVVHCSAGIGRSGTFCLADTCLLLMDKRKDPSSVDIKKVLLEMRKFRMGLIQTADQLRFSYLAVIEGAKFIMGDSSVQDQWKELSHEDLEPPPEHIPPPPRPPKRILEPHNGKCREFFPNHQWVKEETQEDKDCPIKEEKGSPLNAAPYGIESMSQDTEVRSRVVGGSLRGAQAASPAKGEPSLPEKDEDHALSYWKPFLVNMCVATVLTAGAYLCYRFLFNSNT
Method: B) PTP-1B Assay: Inhibition of the phosphatase PTP1B was performed according to reported procedures (Puius, Y. A. et a. Proc. Natl. Acad. Sci., 1997, 94, 13420; Liu, F. J. Biol. Chem., 1996, 271, 31290). PTP1B was purchased from BIOMOL Research Laboratories, Inc.

CD45 = target: T3, CD45 (Homo sapiens, UniProt P08575); assay: CD45 (PTPase) Assay; assay type: biochemical; conditions: Table 6
T3 construct: purchased BIOMOL Research Laboratories, Inc
T3 sequence (P08575 26-1306): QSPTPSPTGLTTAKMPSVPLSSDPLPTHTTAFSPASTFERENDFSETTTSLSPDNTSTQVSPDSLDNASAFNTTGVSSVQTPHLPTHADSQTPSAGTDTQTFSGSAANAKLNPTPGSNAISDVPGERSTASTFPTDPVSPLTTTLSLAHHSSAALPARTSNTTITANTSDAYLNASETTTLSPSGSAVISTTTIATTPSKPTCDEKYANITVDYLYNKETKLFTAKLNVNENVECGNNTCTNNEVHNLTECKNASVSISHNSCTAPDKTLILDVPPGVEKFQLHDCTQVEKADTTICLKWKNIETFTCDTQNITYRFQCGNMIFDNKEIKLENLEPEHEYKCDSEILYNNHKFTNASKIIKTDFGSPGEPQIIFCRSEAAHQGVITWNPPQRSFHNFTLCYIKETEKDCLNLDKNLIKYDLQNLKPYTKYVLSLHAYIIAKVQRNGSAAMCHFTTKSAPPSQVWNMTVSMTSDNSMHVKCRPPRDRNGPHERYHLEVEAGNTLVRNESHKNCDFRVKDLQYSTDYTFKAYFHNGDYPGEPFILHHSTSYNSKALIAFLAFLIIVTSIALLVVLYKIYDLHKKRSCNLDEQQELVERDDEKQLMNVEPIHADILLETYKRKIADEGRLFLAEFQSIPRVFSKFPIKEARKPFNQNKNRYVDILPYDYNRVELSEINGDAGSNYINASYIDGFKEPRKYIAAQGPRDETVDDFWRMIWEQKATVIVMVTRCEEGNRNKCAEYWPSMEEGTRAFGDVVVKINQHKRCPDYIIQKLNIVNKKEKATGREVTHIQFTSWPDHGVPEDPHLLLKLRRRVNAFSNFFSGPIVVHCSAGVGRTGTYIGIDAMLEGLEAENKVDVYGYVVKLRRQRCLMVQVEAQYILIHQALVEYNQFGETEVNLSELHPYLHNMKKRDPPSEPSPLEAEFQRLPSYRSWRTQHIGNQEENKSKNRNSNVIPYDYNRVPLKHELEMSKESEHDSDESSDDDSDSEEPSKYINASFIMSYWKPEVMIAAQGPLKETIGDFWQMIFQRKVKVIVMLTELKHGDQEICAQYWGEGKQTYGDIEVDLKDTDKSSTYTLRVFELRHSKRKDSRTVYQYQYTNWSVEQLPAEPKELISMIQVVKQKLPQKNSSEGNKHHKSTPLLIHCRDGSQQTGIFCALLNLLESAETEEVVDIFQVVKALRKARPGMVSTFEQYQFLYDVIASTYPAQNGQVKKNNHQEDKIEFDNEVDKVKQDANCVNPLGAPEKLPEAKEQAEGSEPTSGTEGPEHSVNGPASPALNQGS
Method: D) CD45 (PTPase) Assay: Inhibition of the phosphatase CD45 was performed according to reported procedures (Pacitti, A. et al Biochem. Biophys. Acta, 1994, 1222, 277; Fisher, D. K. and Higgins, T. J. Pharmacol. Res., 1994, 11, 759). CD45 was purchased from BIOMOL Research Laboratories, Inc.

T1 sequence (P29350 whole entry): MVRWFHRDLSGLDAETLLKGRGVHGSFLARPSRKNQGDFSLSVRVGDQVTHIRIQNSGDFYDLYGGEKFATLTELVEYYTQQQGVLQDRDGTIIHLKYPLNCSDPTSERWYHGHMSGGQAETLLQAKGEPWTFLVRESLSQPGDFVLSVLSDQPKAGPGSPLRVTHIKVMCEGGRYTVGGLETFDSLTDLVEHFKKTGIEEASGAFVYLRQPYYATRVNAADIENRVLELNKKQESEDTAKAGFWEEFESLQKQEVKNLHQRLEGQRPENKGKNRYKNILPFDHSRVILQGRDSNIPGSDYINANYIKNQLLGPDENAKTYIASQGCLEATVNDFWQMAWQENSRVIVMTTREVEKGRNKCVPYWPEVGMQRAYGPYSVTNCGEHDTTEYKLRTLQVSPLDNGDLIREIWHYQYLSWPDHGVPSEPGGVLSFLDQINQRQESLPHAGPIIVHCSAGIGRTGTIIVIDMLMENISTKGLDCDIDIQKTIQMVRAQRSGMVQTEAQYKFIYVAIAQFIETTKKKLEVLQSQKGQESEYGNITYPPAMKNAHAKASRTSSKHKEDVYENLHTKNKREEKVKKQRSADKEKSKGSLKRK

Row | pIC50 (SHP1; FIG. 1 legend, read-out: SHP1 IC50 (FIG. 1 inhibition curve)) | pIC50 (SHP1; Table 6, read-out: SHP1 IC50) | PTP-1B IC50 (PTP-1B) | C45 IC50 (CD45) | SMILES | pIC50 (SCG neurons)
1 | 4.97 | 4.96 | no inh. | no inh. | O=c1oc2c(Sc3ccc4ccccc4c3)cc(O)cc2s1 [Compound 23, 5-Hydroxy-7-((2-naphthy)sulfanyl)benzo[1,3]oxathiol-2-one] | 4.60
2 |  | 5.27 | no inh. | no inh. | O=c1oc2c(Sc3ccc4ccccc4c3)cc(O)c(Sc3ccc4ccccc4c3)c2s1 [Compound 30, 4,7-Bis-((2-naphthyl)sulfanyl)-5-hydroxybenzo[1,3]oxathiol-2-one] | < 4.52
